Experimental data taken from the NIST ThermoML archive (doi:10.1021/je060271a).
Numbers after ± are expanded uncertainties.

Details: 323.14 K, Liquid, Vibrating tube method

CCCCCCC(=O)OCC(COC(=O)CCCCCC)(COC(=O)CCCCCC)COC(=O)CCCCCC [pentaerythritol tetraheptanoate]
Details | mass density [kg/m3]
1867.1 kPa | 956.8 ± 1.2
1879.2 kPa | 956.9 ± 1.2
1889.3 kPa | 956.8 ± 1.2
1901.4 kPa | 957 ± 1.2
1911.9 kPa | 956.9 ± 1.2
1922.6 kPa | 956.9 ± 1.2
1933.4 kPa | 956.9 ± 1.2
1945.7 kPa | 956.9 ± 1.2
1956.8 kPa | 957 ± 1.2
1967.4 kPa | 957 ± 1.2
1980.8 kPa | 957 ± 1.2
1992.6 kPa | 957 ± 1.2
2003.7 kPa | 957.1 ± 1.2
2015.1 kPa | 956.9 ± 1.2
2026.2 kPa | 956.9 ± 1.2
2040.3 kPa | 957.1 ± 1.2
2051.7 kPa | 957 ± 1.2
2063 kPa | 957 ± 1.2
2075 kPa | 956.9 ± 1.2
2089.2 kPa | 957.1 ± 1.2
2101.9 kPa | 957 ± 1.2
2226.1 kPa | 957 ± 1.2
2302.3 kPa | 957.1 ± 1.2
2543.1 kPa | 957.3 ± 1.2
2581.9 kPa | 957.3 ± 1.2
2614.7 kPa | 957.4 ± 1.2
2750.1 kPa | 957.5 ± 1.2
2958.7 kPa | 957.6 ± 1.2
3185.1 kPa | 957.8 ± 1.2
3256.6 kPa | 957.9 ± 1.2
3279.3 kPa | 957.8 ± 1.2
3302.3 kPa | 957.9 ± 1.2
3329.7 kPa | 957.8 ± 1.2
3352.8 kPa | 957.8 ± 1.2
3377 kPa | 957.9 ± 1.2
3405.8 kPa | 957.9 ± 1.2
3429.7 kPa | 958.1 ± 1.2
3454.8 kPa | 958 ± 1.2
3479.6 kPa | 958 ± 1.2
3509.6 kPa | 958 ± 1.2
3534.6 kPa | 958.1 ± 1.2
3565.2 kPa | 957.9 ± 1.2
3591.4 kPa | 958.1 ± 1.2
3617.6 kPa | 958 ± 1.2
3974.4 kPa | 958.4 ± 1.2
4012.4 kPa | 958.4 ± 1.2
4041.1 kPa | 958.3 ± 1.2
4057.6 kPa | 958.4 ± 1.2
4063.1 kPa | 958.4 ± 1.2
4064.9 kPa | 958.3 ± 1.2
4065.5 kPa | 958.5 ± 1.2
4066.2 kPa | 958.5 ± 1.2
4067.3 kPa | 958.5 ± 1.2
4068.5 kPa | 958.5 ± 1.2
4069.4 kPa | 958.6 ± 1.2
4069.5 kPa | 958.5 ± 1.2
